Source: publication PMC12655351, “Synthesis and Anticancer Activity Evaluation of New 5-((5-Nitrofuran-2-yl)allylidene)-2-thioxo-4-thiazolidinones” (Pharmaceuticals, 2025)
Values joined by “and” are separate entries in the source; they are usually repeats but may differ in a detail not shown here. Identical values can stand only once. Like-named read-outs stand apart in the source and are kept apart here.

Key:
BT-549 [1] = test: cells; conditions: Homo sapiens, BT-549, 48 h; for CC50: read-out: LC50, BT-549, 48 h
IGROV1 = test: NCI-60 SRB screen
HOP-62 = test: NCI-60 SRB screen; conditions: HOP-62, 48 h
SK-MEL-5 = test: cells; conditions: Homo sapiens, SK-MEL-5, 48 h; for CC50: read-out: LC50, SK-MEL-5, 48 h
SK-MEL-28 = test: cells; conditions: Homo sapiens, SK-MEL-28, 48 h; for CC50: read-out: LC50, SK-MEL-28, 48 h
UACC-257 = test: cells; conditions: Homo sapiens, UACC-257, 48 h; for CC50: read-out: LC50, UACC-257, 48 h
OVCAR-4 = test: cells; conditions: Homo sapiens, OVCAR-4, 48 h; for CC50: read-out: LC50, OVCAR-4, 48 h
HT29 = conditions: HT29, 48 h
UACC-62 = test: NCI-60 SRB screen
[2] = tested on: panel of 60 cancer cell lines; test: cells; conditions: Homo sapiens, read-out: MG_MID GI50
786-0 = test: cells; conditions: Homo sapiens, 786-0, 48 h
M14 = test: NCI-60 SRB screen; conditions: M14, 48 h; for CC50: read-out: LC50, M14, 48 h
K562 = test: MTT assay; format: cell-based; conditions: Homo sapiens; K562, 24 h of treatment
How it was run: (§1)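 Cells were exposed to compounds at 0.625–40.0 μM (seven concentrations, triplicate) for 24 h, then incubated with MTT for 2 h at 37 °C. After lysis in acidic SDS/DMF buffer (pH 4.7), absorbance was read at 570 nm.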

AGS = test: MTT assay; format: cell-based; conditions: Homo sapiens, 24 h of treatment
How it was run: as §1

MCF-7 = test: MTT assay; format: cell-based; conditions: Homo sapiens, MCF7; MCF-7, 24 h of treatment
How it was run: as §1

Jurkat = test: MTT assay; format: cell-based; conditions: Homo sapiens, 24 h of treatment
How it was run: as §1

HCC-1954 = test: MTT assay; format: cell-based; conditions: Homo sapiens, HCC1954; HCC-1954, 24 h of treatment
How it was run: as §1

RPMI 8866 = test: MTT assay; format: cell-based; conditions: Homo sapiens; RPMI 8866, 24 h of treatment
How it was run: as §1

HT-29 = test: MTT assay; format: cell-based; conditions: Homo sapiens; HT-29, 24 h of treatment
How it was run: as §1

DLD-1 = test: MTT assay; format: cell-based; conditions: Homo sapiens; DLD-1, 24 h of treatment
How it was run: as §1

BT-549 [3] = tested on: BT-549
A549/ATCC = test: NCI-60 SRB screen
SK-OV-3 = conditions: SK-OV-3, 48 h
KM12 = test: NCI-60 SRB screen; conditions: KM12, 48 h
HCT-116 = test: cells; conditions: Homo sapiens, HCT-116, 48 h
K-562 = test: cells; conditions: Homo sapiens, K562, 48 h; for GI50: K-562, 48 h; for CC50: read-out: LC50
HL-60(TB) = test: NCI-60 SRB screen; conditions: for GI50 / TGI: HL-60(TB), 48 h
SW-620 = test: NCI-60 SRB screen; conditions: SW-620, 48 h
[4] = Homo sapiens, IGROV-1, 48 h, read-out: LC50, IGROV1, 48 h
[5] = Homo sapiens, UACC-62, 48 h, read-out: LC50, UACC-62, 48 h

## O=C(O)CCCCCN1C(=O)/C(=C/C=C/c2ccc([N+](=O)[O-])o2)SC1=S [14b, 6-((Z)-5-((E)-3-(5-nitrofuran-2-yl)allylidene)-4-oxo-2-thioxothiazolidin-3-yl)hexanoic acid]
BT-549 [1]
  CC50: 5.07 µM
OVCAR-3; OVCAR-3, 10 μM, 48 h
  growth GP: -95.33%
OVCAR-3; OVCAR-3, 48 h
  GI50: 0.96 µM
  TGI: 2.35 µM and 2.22 µM
IGROV1; [4]
  CC50: 5.01 µM
IGROV1; read-out: LC50, IGROV1, 48 h
  CC50: 2.67 µM
HOP-62
  GI50: 1.45 µM
  TGI: 3.05 µM and 3.01 µM
HOP-62; Homo sapiens
  GI50: 1.44 µM
SK-MEL-5
  CC50: 4.6 µM
SK-MEL-28
  GI50: 1.64 µM
  CC50: 5.9 µM
UACC-257
  GI50: 1.6 µM
  CC50: 6.27 µM
OVCAR-4
  GI50: 1.31 µM
  CC50: 5.41 µM
HT29
  GI50: 1.13 µM
  TGI: 2.71 µM and 3.39 µM
UACC-62; Homo sapiens, UACC-62, 48 h
  GI50: 0.37 µM
UACC-62; [5]
  CC50: 4.08 µM
UACC-62; UACC-62, 10 μM, 48 h
  growth GP: -96.88%
UACC-62; UACC-62, 48 h
  GI50: 0.25 µM
UACC-62; read-out: LC50, UACC-62, 48 h
  CC50: 2.82 µM
[2]
  GI50: 1.1 µM
786-0
  GI50: 0.61 µM
M14; Homo sapiens
  CC50: 5.56 µM
K562
  IC50: 1.53 µM
AGS
  IC50: 2.57 µM
MCF-7
  IC50: 0.85 µM
Jurkat
  IC50: 0.28 µM
HCC-1954
  IC50: 3.3 µM
RPMI 8866
  IC50: 3.13 µM
HT-29
  IC50: 4.52 µM
DLD-1
  IC50: 1.8 µM
BT-549 [3]; BT-549, 10 μM, 48 h
  growth GP: -97.16%
BT-549 [3]; human, 48 h
  CC50: 3.03 µM
A549/ATCC; 48 h
  GI50: 2.38 µM
A549/ATCC; Homo sapiens, A549, 48 h
  GI50: 1.62 µM
SK-OV-3
  GI50: 2.98 µM
KM12; Homo sapiens
  GI50: 1.42 µM
KM12
  GI50: 1.19 µM
  TGI: 2.83 µM and 2.67 µM
HCT-116
  GI50: 0.31 µM
K-562
  GI50: 0.2 µM
  CC50: > 100 µM
HL-60(TB)
  GI50: 1.11 µM
  TGI: 3.32 µM and 2.81 µM
HL-60(TB); Homo sapiens, HL-60, 48 h
  GI50: 0.75 µM
SW-620; Homo sapiens
  GI50: 0.23 µM
SW-620
  GI50: 0.24 µM
  TGI: 0.57 µM and 0.61 µM
COLO 205; COLO 205, 48 h
  GI50: 0.97 µM
  TGI: 3.08 µM and 2.35 µM
COLO 205; human, 48 h
  CC50: 5.61 µM

## O=C(O)C(c1ccccc1)N1C(=O)/C(=C/C=C/c2ccc([N+](=O)[O-])o2)SC1=S (stereo not shown) [9b, 2-((Z)-5-((E)-3-(5-Nitrofuran-2-yl)allylidene)-4-oxo-2-thioxothiazolidin-3-yl)-2-phenylacetic acid]
BT-549 [1]
  GI50: 2.46 µM
  CC50: 35.7 µM
OVCAR-3; OVCAR-3, 48 h
  TGI: 21.4 µM
IGROV1; Homo sapiens, IGROV-1, 48 h, IGROV1, 48 h
  GI50: 14.3 µM
IGROV1; [4]
  CC50: 66.6 µM
IGROV1; IGROV1, 48 h
  TGI: 30.8 µM
HOP-62
  TGI: 44.5 µM
HOP-62; Homo sapiens
  GI50: 13.1 µM
SK-MEL-5
  GI50: 3.38 µM
  CC50: 38.8 µM
SK-MEL-28
  GI50: 10.7 µM
  CC50: 51.1 µM
UACC-257
  GI50: 13.2 µM
  CC50: 56.1 µM
OVCAR-4
  GI50: 13.9 µM
  CC50: 56.1 µM
HT29
  TGI: 22.4 µM
UACC-62; Homo sapiens, UACC-62, 48 h
  GI50: 2.69 µM
UACC-62; [5]
  CC50: 35.3 µM
UACC-62; UACC-62, 48 h
  TGI: 11.1 µM
[2]
  GI50: 9.03 µM
786-0
  GI50: 3.67 µM
M14; Homo sapiens
  GI50: 12.6 µM
  CC50: 58 µM
M14
  TGI: 27.0 µM
K562
  IC50: 37.6 µM
AGS
  IC50: 12.9 µM
MCF-7
  IC50: 14.1 µM
Jurkat
  IC50: 2.51 µM
HCC-1954
  IC50: 20.6 µM
RPMI 8866
  IC50: 5.54 µM
HT-29
  IC50: 20 µM
DLD-1
  IC50: 12.3 µM
BT-549 [3]; BT-549, 48 h
  TGI: 7.81 µM
A549/ATCC; 48 h
  TGI: 47.0 µM
A549/ATCC; Homo sapiens, A549, 48 h
  GI50: 16.8 µM
SK-OV-3
  TGI: 29.9 µM
KM12; Homo sapiens
  GI50: 6.66 µM
KM12
  TGI: 20.6 µM
HCT-116
  GI50: 2.68 µM
HCT-116; read-out: LC50, HCT-116, 48 h
  CC50: > 100 µM
K-562
  GI50: 3.45 µM
  CC50: > 100 µM
HL-60(TB)
  TGI: 42.2 µM
HL-60(TB); Homo sapiens, HL-60, 48 h
  GI50: 14.8 µM
HL-60(TB); Homo sapiens, HL-60, 48 h, read-out: LC50, HL-60(TB), 48 h
  CC50: > 100 µM
SW-620; Homo sapiens
  GI50: 2.94 µM
SW-620
  TGI: 9.66 µM
COLO 205; COLO 205, 48 h
  TGI: 22.2 µM
